Test results: PubChem BioAssay (NCI)
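These data come from cells grown in 96-well plates and exposed to compound for 48 hours at five concentrations. Definition used: TGI = concentration required for complete inhibition of growth.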

Key:
Assay in all cases: NCI-60 cell line screen, 48 h
EKVX NSCLC = system: EKVX NSCLC
NCI/ADR-RES ovarian = system: NCI/ADR-RES ovarian
BT-549 breast = system: BT-549 breast
SK-MEL-5 melanoma = system: SK-MEL-5 melanoma
DU-145 prostate = system: DU-145 prostate
IGROV1 ovarian = system: IGROV1 ovarian
NCI-H460 lung = system: NCI-H460 lung
OVCAR-5 ovarian = system: OVCAR-5 ovarian
A549 NSCLC = system: A549 NSCLC
MCF7 breast = system: MCF7 breast
U251 CNS = system: U251 CNS
SR leukemia = system: SR leukemia

Compound | TGI (EKVX NSCLC) [µM] | TGI (NCI/ADR-RES ovarian) [µM] | TGI (BT-549 breast) [µM] | TGI (SK-MEL-5 melanoma) [µM] | TGI (DU-145 prostate) [µM] | TGI (IGROV1 ovarian) [µM] | TGI (NCI-H460 lung) [µM] | TGI (OVCAR-5 ovarian) [µM] | TGI (A549 NSCLC) [µM] | TGI (MCF7 breast) [µM] | TGI (U251 CNS) [µM] | TGI (SR leukemia) [µM]
CCOC(=O)NC(Nc1c(F)c(F)c(F)c(F)c1F)(C(F)(F)F)C(F)(F)F | > 100 | > 100 | > 100 | > 100 | > 100 | > 100 | > 100 | > 100 | > 100 | > 100 | > 100 | > 100
CN(C)c1ccc(Cc2cc3c(O)ccc(O)c3cc(Cc3ccc(N(C)C)cc3)c2=O)cc1 | 44.2 | > 81.8 | 32.2 | 39.3 | > 60 | 40.2 | > 100 | > 70 | > 77.1 | 58.6 | 41.4 | > 26.5
COc1cccc2c1OCC1Cc3ccccc3OC21 (configuration not stated) | > 100 | > 100 | 52.2 | 30.8 | > 100 | > 100 |  | > 100 | > 100 | > 100 | > 100 | > 100
O=C1c2cccc(O)c2C(=O)c2c(OC3OC(CO)C(O)C(O)C3O)cccc21 (configuration not stated) | > 100 | 68.4 | 93.3 | 36 | > 100 | > 100 | 59 | > 100 | > 100 | > 100 | > 100 | > 100
COc1cc(C(O)c2ccc3c(c2)OCO3)cc(OC)c1OC (configuration not stated) | > 100 | > 100 | > 100 | > 100 | > 100 | > 100 | > 100 | > 100 | > 100 | > 100 | > 100 | > 100
CCOC(=O)C1CCC(=O)N1C(=O)c1ccccc1Cl (configuration not stated) | > 100 | > 100 | > 100 | > 100 | > 100 | > 100 | > 100 | > 100 | > 100 | > 100 | > 100 | > 100
COc1ccc(OC)c2sc(N3C(=O)/C(=C/c4cccc([N+](=O)[O-])c4)N=C3c3ccccc3)nc12 | > 100 | > 100 | > 100 | > 100 | > 100 | > 100 | > 100 | > 100 | > 100 | 48.9 | > 100 | 70.3
O=S1(=O)c2cnccc2NC(=NCc2ccccc2)N1c1ccccc1 | > 100 | > 100 | > 100 | > 100 | > 100 | > 100 | > 100 | > 100 | > 100 | > 100 | > 100 | > 100
COc1cc2[nH]c(-c3ccccc3)cc(=O)c2c(OC)c1OC | > 100 | > 100 | > 100 | > 100 | > 100 | > 100 | > 100 | > 100 | > 100 | > 100 | > 100 | > 100
